Where two headings read alike, the source gives them in different places.
How the values were obtained:
Assay type in all cases: in vivo
[1] = test system: Abutilon theophrasti (ABUTH); assay: Pre-emergence herbicidal action against ABUTH; conditions: Dosage column 320 g/ha (title prints 3200 g/ha); scored visually after about 3 weeks; 100% = plants have died
Procedure, shortened: (§1)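 Read-out is visual percent damage relative to untreated pots, with 100% meaning dead plants and 0% meaning no difference, assessed roughly three weeks after treatment. Compounds were applied pre-emergence to the covering soil at up to 320 g/ha.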

[2] = test system: Alopecurus myosuroides (ALOMY); assay: Pre-emergence herbicidal action against ALOMY; conditions: 320 g/ha; scored visually after about 3 weeks; 100% = plants have died
Procedure, shortened: as §1

[3] = test system: Amaranthus retroflexus (AMARE); assay: Pre-emergence herbicidal action against AMARE; conditions: visual scoring after about 3 weeks vs untreated controls
Procedure, shortened: as §1

[4] = test system: Avena fatua (AVEFA); assay: Pre-emergence herbicidal action against AVEFA; conditions: visual scoring after about 3 weeks vs untreated controls
Procedure, shortened: as §1

[5] = test system: Echinochloa crus-galli (ECHCG); assay: Pre-emergence herbicidal action against ECHCG; conditions: dosage 320 g/ha
Procedure, shortened: as §1

[6] = test system: Lolium rigidum (LOLRI); assay: Pre-emergence herbicidal action against LOLRI
Procedure, shortened: as §1

[7] = test system: Matricaria inodora (MATIN); assay: Pre-emergence herbicidal action against MATIN
Procedure, shortened: as §1

[8] = test system: Pharbitis purpurea (PHBPU); assay: Pre-emergence herbicidal action against PHBPU
Procedure, shortened: as §1

[9] = test system: Polygonum convolvulus (POLCO); assay: Pre-emergence herbicidal action against POLCO
Procedure, shortened: as §1

[10] = test system: Setaria viridis (SETVI); assay: Pre-emergence herbicidal action against SETVI
Procedure, shortened: as §1

[11] = test system: Verconica persica (VERPE); assay: Pre-emergence herbicidal action against VERPE; conditions: dosage 320 g/ha
Procedure, shortened: as §1

[12] = test system: Viola tricolor (VIOTR); assay: Pre-emergence herbicidal action against VIOTR
Procedure, shortened: as §1

[13] = test system: Glycine max (GLXMA); conditions: pre-emergence, crop plant compatibility, in comparison to untreated controls
Procedure, shortened: (§2)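 Scoring: visual, % of untreated control, about 3 weeks after a pre-emergence application to the soil surface. Application used WP or EC formulations diluted in water with 0.5% additive at 600 l/ha; dosage levels are marked by suffixes a, b and c.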

[14] = test system: Abutilon theophrasti (ABUTH); assay: Post-emergence herbicidal action against ABUTH; conditions: visual rating about 3 weeks after treatment vs untreated controls (100% = plants have died, 0% = like control plants)
Procedure, shortened: (§3)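 Doses of 320 g/ha or lower, suffixes a, b and c marking different dosages, were applied post-emergence at the one-leaf stage in 600 l/ha water with 0.5% additive. Damage was assessed visually after about 3 weeks in the greenhouse.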

[15] = test system: Alopecurus myosuroides (ALOMY); assay: Post-emergence herbicidal action against ALOMY; conditions: visual rating about 3 weeks after treatment vs untreated controls (100% = plants have died, 0% = like control plants)
Procedure, shortened: as §3

[16] = test system: Amaranthus retroflexus (AMARE); assay: Post-emergence herbicidal action against AMARE
Procedure, shortened: as §3

[17] = test system: Avena fatua (AVEFA); assay: Post-emergence herbicidal action against AVEFA; conditions: visual rating about 3 weeks after treatment
Procedure, shortened: as §3

[18] = test system: Echinochloa crus-galli (ECHCG); assay: Post-emergence herbicidal action against ECHCG
Procedure, shortened: as §3

[19] = test system: Matricaria inodora (MATIN); assay: Post-emergence herbicidal action against MATIN
Procedure, shortened: as §3

[20] = test system: Pharbitis purpurea (PHBPU); assay: Post-emergence herbicidal action against PHBPU
Procedure, shortened: as §3

[21] = test system: Polygonum convolvulus (POLCO); assay: Post-emergence herbicidal action against POLCO
Procedure, shortened: as §3

[22] = test system: Setaria viridis (SETVI); assay: Post-emergence herbicidal action against SETVI
Procedure, shortened: as §3

[23] = test system: Verconica persica (VERPE); assay: Post-emergence herbicidal action against VERPE
Procedure, shortened: as §3

[24] = test system: Oryza sativa (ORYSA); conditions: crop plant compatibility
Procedure, shortened: (§4)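 Percent effect on the crop was judged by eye against untreated controls, where 0% means like control and 100% means dead plants. Plants had been sprayed post-emergence at the one-leaf stage and then kept under optimum greenhouse conditions for about 3 weeks.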

[25] = test system: Zea mays (ZEAMX); conditions: for Post-emergence action against ZEAMX in % (crop plant compatibility): 20 g/ha, effect in comparison to untreated controls; for Post-emergence action against ZEAMX in %: crop plant compatibility, effect vs untreated controls
Procedure, shortened: as §4

[26] = test system: Oryza sativa (ORYSA); conditions: pre-emergence, crop plant compatibility, in comparison to untreated controls
Procedure, shortened: as §2

[27] = test system: Triticum aestivum (TRZAS); conditions: pre-emergence, 80 g/ha, crop plant compatibility, in comparison to untreated controls
Procedure, shortened: as §2

[28] = test system: Zea mays (ZEAMX); conditions: pre-emergence, crop plant compatibility, in comparison to untreated controls
Procedure, shortened: as §2

[29] = test system: Viola tricolor (VIOTR); assay: Post-emergence herbicidal action against VIOTR
Procedure, shortened: as §3

[30] = test system: Triticum aestivum (TRZAS); conditions: crop plant compatibility, 20 g/ha, effect vs untreated controls
Procedure, shortened: as §4

[31] = test system: Lolium rigidum (LOLRI); assay: Post-emergence herbicidal action against LOLRI; conditions: dosage 320 g/ha
Procedure, shortened: as §3

[32] = test system: Digitaria sanguinalis (DIGSA); assay: Pre-emergence herbicidal action against DIGSA; conditions: dosage 320 g/ha
Procedure, shortened: as §1

[33] = 80 g/ha, visual rating about 3 weeks after treatment vs untreated controls (100% = plants have died, 0% = like control plants)
[34] = 20 g/ha, effect vs untreated controls
[35] = 320 g/ha, visual rating about 3 weeks after treatment
[36] = 80 g/ha, effect in comparison to untreated controls

| Compound | Pre-emergence action against ALOMY [2] | Pre-emergence action against AMARE in % ([3]; 80 g/ha) | Pre-emergence action against AMARE in % ([3]; 320 g/ha) | Pre-emergence action against ECHCG in % [5] | Pre-emergence action against LOLRI in % ([6]; dosage 320 g/ha) | Pre-emergence action against MATIN in % ([7]; dosage 80 g/ha) | Pre-emergence action against MATIN in % ([7]; dosage 320 g/ha) | Pre-emergence action against PHBPU in % ([8]; dosage 80 g/ha) | Pre-emergence action against PHBPU in % ([8]; dosage 320 g/ha) | Pre-emergence action against POLCO in % ([9]; dosage 320 g/ha) | Pre-emergence action against SETVI in % ([10]; dosage 320 g/ha) | Pre-emergence action against VIOTR in % ([12]; 320 g/ha, Viola tricolor) | Pre-emergence action against VIOTR in % ([12]; dosage 80 g/ha) | Pre-emergence action against GLXMA in % ([13]; 80 g/ha) | Post-emergence action against ABUTH in % ([14]; 80 g/ha) | Post-emergence action against AMARE in % [16, 33] | Post-emergence action against PHBPU in % ([20]; dosage 80 g/ha) | Pre-emergence action against TRZAS in % [27] | Post-emergence action against VIOTR in % ([29]; 320 g/ha) | Post-emergence action against ORYSA in % [24, 36] | other results |
| --- | --- | --- | --- | --- | --- | --- | --- | --- | --- | --- | --- | --- | --- | --- | --- | --- | --- | --- | --- | --- | --- |
| COC(=O)CCOC(=O)COc1nn(-c2ccccn2)c(-c2cncc(F)c2)c1Br [Example I-77] | 90% | 90% | 100% | 100% | 100% | 80% | 90% | 80% | 90% | 90% | 100% | 100% | 90% | 0% | 80% | 80% | 90% |  |  |  | Pre-emergence action against ABUTH [1]: 80%; Pre-emergence action against AVEFA in % ([4]; 80 g/ha): 80%; Pre-emergence action against AVEFA in % ([4]; 320 g/ha): 90%; Pre-emergence action against LOLRI in % ([6]; dosage 80 g/ha): 90%; Pre-emergence action against VERPE in % [11]: 90%; Post-emergence action against ALOMY in % ([15]; 80 g/ha): 90%; Post-emergence action against AVEFA in % ([17]; 80 g/ha): 90%; Post-emergence action against ECHCG in % ([18]; dosage 80 g/ha): 90%; Post-emergence action against MATIN in % ([19]; dosage 80 g/ha): 90%; Post-emergence action against POLCO in % ([21]; dosage 80 g/ha): 80%; Post-emergence action against SETVI in % ([22]; dosage 80 g/ha): 80%; Post-emergence action against VERPE in % ([23]; dosage 80 g/ha): 90%; Post-emergence action against ORYSA in % [24, 34]: 0%; Post-emergence action against ZEAMX in % (crop plant compatibility) [25]: 0% |
| COC(=O)CCOC(=O)COc1nn(-c2ccnc(F)c2)c(-c2ccc(F)nc2)c1Br [III-27] |  |  |  |  |  |  |  |  |  |  | 90% |  |  | 0% |  | 80% |  | 20% | 80% | 0% | Pre-emergence action against ORYSA in % ([26]; 80 g/ha): 0%; Pre-emergence action against ORYSA in % ([26]; 320 g/ha): 20%; Pre-emergence action against ZEAMX in % ([28]; 80 g/ha): 10%; Pre-emergence action against ZEAMX in % ([28]; 320 g/ha): 20%; Post-emergence action against AMARE in % [16, 35]: 80%; Post-emergence action against ORYSA in % ([24]; 320 g/ha, effect in comparison to untreated controls): 0%; Post-emergence action against ZEAMX in % ([25]; 80 g/ha): 10%; Post-emergence action against ZEAMX in % ([25]; 320 g/ha): 10% |
| COC(=O)CCOC(=O)COc1nn(-c2ccnc(Cl)c2)c(-c2ccc(F)nc2)c1Br [III-19] |  |  | 80% |  |  |  |  |  |  |  |  |  |  | 0% |  | 80% | 80% | 20% |  | 0% | Pre-emergence action against ORYSA in % ([26]; 80 g/ha): 0%; Pre-emergence action against ORYSA in % ([26]; 320 g/ha): 20%; Post-emergence action against ORYSA in % [24, 34]: 0%; Post-emergence action against TRZAS in % [30]: 20%; Post-emergence action against ZEAMX in % (crop plant compatibility) [25]: 0% |
| COC(=O)CSc1nn(-c2ccccn2)c(-c2cncc(F)c2)c1Br [Example I-151] | 100% | 90% | 100% | 90% | 90% | 90% | 90% | 80% | 80% | 90% | 100% | 100% |  | 10% | 80% | 90% | 90% | 10% | 90% | 0% | Pre-emergence action against SETVI in % ([10]; dosage 80 g/ha): 90%; Pre-emergence action against GLXMA in % ([13]; 320 g/ha): 20%; Post-emergence action against ABUTH in % ([14]; 320 g/ha): 80%; Post-emergence action against ALOMY in % ([15]; 80 g/ha): 80%; Post-emergence action against ALOMY in % ([15]; 320 g/ha): 80%; Post-emergence action against AMARE in % [16, 35]: 100%; Post-emergence action against AVEFA in % ([17]; 80 g/ha): 90%; Post-emergence action against AVEFA in % ([17]; 320 g/ha): 90%; Post-emergence action against ECHCG in % ([18]; dosage 80 g/ha): 90%; Post-emergence action against ECHCG in % ([18]; dosage 320 g/ha): 90%; Post-emergence action against LOLRI in % [31]: 90%; Post-emergence action against MATIN in % ([19]; dosage 80 g/ha): 80%; Post-emergence action against MATIN in % ([19]; dosage 320 g/ha): 90%; Post-emergence action against PHBPU in % ([20]; dosage 320 g/ha): 90%; Post-emergence action against POLCO in % ([21]; dosage 320 g/ha): 80%; Post-emergence action against SETVI in % ([22]; dosage 80 g/ha): 90%; Post-emergence action against SETVI in % ([22]; dosage 320 g/ha): 90%; Post-emergence action against VERPE in % ([23]; 320 g/ha, VERPE): 90%; Post-emergence action against VIOTR in % ([29]; 80 g/ha): 80% |
| COC(=O)COc1nn(-c2ncccc2C(F)(F)F)c(-c2cncc(F)c2)c1Br [Example I-206] | 80% |  | 90% | 80% |  |  | 90% |  | 80% | 80% |  | 100% | 90% | 10% |  |  |  | 0% | 80% |  | Pre-emergence action against DIGSA in % [32]: 90%; Pre-emergence action against POLCO in % ([9]; dosage 80 g/ha): 80%; Post-emergence action against ALOMY in % ([15]; 320 g/ha): 80%; Post-emergence action against ECHCG in % ([18]; dosage 320 g/ha): 80%; Post-emergence action against MATIN in % ([19]; dosage 320 g/ha): 80%; Post-emergence action against PHBPU in % ([20]; dosage 320 g/ha): 90%; Post-emergence action against VERPE in % ([23]; 320 g/ha, VERPE): 80% |
